BigSolDB 2.1

## CC12CCC(CC1=O)C2(C)C (stereo not drawn)
In acetone, 303.15 K
  solubility (mole fraction): 0.553
In acetone, 308.15 K
  solubility (mole fraction): 0.571
In acetone, 313.55 K
  solubility (mole fraction): 0.594
In acetone, 319.25 K
  solubility (mole fraction): 0.614
In acetone, 323.15 K
  solubility (mole fraction): 0.627
In ethanol, 303.15 K
  solubility (mole fraction): 0.365
In ethanol, 308.15 K
  solubility (mole fraction): 0.396
In ethanol, 313.15 K
  solubility (mole fraction): 0.412
In ethanol, 318.15 K
  solubility (mole fraction): 0.451
In ethanol, 322.95 K
  solubility (mole fraction): 0.508
In ethanol, 327.95 K
  solubility (mole fraction): 0.538
In ethanol, 333.35 K
  solubility (mole fraction): 0.588
In ethanol, 338.15 K
  solubility (mole fraction): 0.63
In ethanol, 343.15 K
  solubility (mole fraction): 0.699
In p-cymene, 303.85 K
  solubility (mole fraction): 0.58
In p-cymene, 308.05 K
  solubility (mole fraction): 0.589
In p-cymene, 313.15 K
  solubility (mole fraction): 0.601
In p-cymene, 317.95 K
  solubility (mole fraction): 0.609
In p-cymene, 323.65 K
  solubility (mole fraction): 0.624
In p-cymene, 328.15 K
  solubility (mole fraction): 0.631
In p-cymene, 333.35 K
  solubility (mole fraction): 0.641
In p-cymene, 337.95 K
  solubility (mole fraction): 0.652
In p-cymene, 343.05 K
  solubility (mole fraction): 0.664
In p-xylene, 303.05 K
  solubility (mole fraction): 0.6
In p-xylene, 308.15 K
  solubility (mole fraction): 0.637
In p-xylene, 313.15 K
  solubility (mole fraction): 0.66
In p-xylene, 318.15 K
  solubility (mole fraction): 0.683
In p-xylene, 323.25 K
  solubility (mole fraction): 0.714
In p-xylene, 327.85 K
  solubility (mole fraction): 0.736
In p-xylene, 328.15 K
  solubility (mole fraction): 0.739
In p-xylene, 333.15 K
  solubility (mole fraction): 0.77
In p-xylene, 338.35 K
  solubility (mole fraction): 0.795
In p-xylene, 343.15 K
  solubility (mole fraction): 0.824
